{"source": "patent US10736968B2", "about": "“Cellular signalling inhibitors, their formulations and methods thereof” (INVICTUS ONCOLOGY PVT. LTD., priority 2016, dated 2020)", "test_system": "AKT-mTOR-p70S6K pathway", "experiment": "Downstream signaling in macrophages after drug washout and MCSF exposure (Western blot)", "type": "cell-based", "conditions": "4 hours drug, washout 7 h or 48 h, MCSF 2 h"}
{"smiles": "FC(F)(F)c1ccc(CNc2ccc(Cc3c[nH]c4ncc(Cl)cc34)cn2)cn1", "note": "[PLX3397]", "values": [{"measurement": "AKT-mTOR-p70S6K downstream signaling", "value": "not by BLZ945 and PLX3397"}]}
